Reference: US8729048B2, “Methods and materials for assessing responsiveness to PARP inhibitors and platinating agents” (Mayo Foundation for Medical Education and Research, priority 2011, dated 2014)
“Also recorded” adds a separate entry of the source.

What was measured:
Assay type in all cases: cell-based
[1] = test system: poly(ADP-ribose) polymer (pADPr) in PEO1 cells; experiment: Immunoblotting for poly(ADP-ribose) polymer; conditions: 72 hours, ABT-888 0-40 μM
Experimental: FIG. 2. DNA-PK is activated following PARP inhibitor exposure in PEO1 cells. (A) Western blots for poly(ADP-ribose) polymer (pADPr) and phosphorylation of DNA-PK substrates (DNA-PKcs autophosphorylation at Thr^2609 and Histone H2AX at Ser^139) in PEO1 cells following 72 hours exposure to increasing concentrations of ABT-888 (0, 0.625, 1.25, 2.5, 5, 10, 20, and 40 μM). Hsp90, total DNA-PKcs, and Histone H1 are used as loading controls. […] (C) Quantitation of cells positive for phospho-H2AX foci in PEO1 and PEO4 cells, following treatment with DMSO, 500 nM DNA-PKi, 20 μM ABT-888 (ABT), ABT-888 and DNA-PKi, 50 μM Etoposide (Etop), or 5 Gy ionizing radiation (IR). […]
Cells were washed twice with calcium- and magnesium-free Dulbecco's phosphate-buffered saline (PBS) and solubilized in 6 M guanidine hydrochloride containing 250 mM Tris-HCl, pH 8.5 at 20° C., 10 mM EDTA, 1% (v/v) 2-mercaptoethanol, and 1 mM freshly added phenylmethylsulfonyl fluoride. After preparation for electrophoresis as described elsewhere (Kaufmann et al., Blood, 89:2098-2104 (1997)), aliquots containing 50 μg of protein (determined by the bicinchoninic acid method—S10) were separated on SDS-polyacrylamide gels containing 8% (w/v) acrylamide, electrophoretically transferred to nitrocellulose, and probed with immunological reagents as described elsewhere (Kaufmann, Anal. Biochem., 296:283-286 (2001)). […]

[2] = test system: NHEJ activity in PEO1 cells; experiment: NHEJ end-joining reporter assay, PEO1; conditions: 72 hours
Text: (§1) FIG. 3. Error-prone NHEJ activity is enhanced by PARP inhibitors in PEO1 cells. (A) Schematic of the in vivo NHEJ assay. Pem1-Ad2-EGFP is an EGFP-containing vector with a 2.4 kb intron (Pem1) and one exon (Ad2) inserted into the EGFP cassette. Pem1-Ad2-EGFP was cut with either HindIII or I-SceI to produce linearized substrate with compatible overhangs or incompatible inverted overhangs, respectively. Successfully recircularized plasmid will produce intact EGFP, which can be assayed via flow cytometry. Any residual uncut plasmid, due to the insertion of the Ad2 exon within the EGFP open reading frame, will be EGFP negative. A pCherry plasmid was co-transfected with substrate to correct for transfection efficiency. (B) and (C) Quantitation of NHEJ activity in PEO1 and PEO4 cells transfected with HindIII substrate (B) or I-SceI substrate (C) and exposed to ABT-888 for 72 hours. Each data point represents the mean±SEM from 3 independent experiments.
(§2) The end-joining reporter plasmid pEGFP-Pem1-Ad2 described elsewhere (Wang et al., Nucleic Acids Res., 34:6170-6182 (2006); Seluanov et al., Proc. Natl. Acad. Sci. USA, 101:7624-7629 (2004); and Fattah et al., PLoS Genet., 6:e1000855 (2010); see also (FIG. 3A)) was provided by E. Hendrickson (University of Minnesota, Minneapolis, Minn.) and was digested with either HindIII or I-SceI for 12 hours, and gel purified using a Qiagen gel extraction kit. […]

[3] = test system: NHEJ activity in PEO4 cells; experiment: NHEJ end-joining reporter assay, PEO4; conditions: 72 hours
Text: as §1, §2

[4] = test system: HPRT locus in BRCA2-mutant CAPAN1 cells; experiment: HPRT mutagenesis assay; conditions: 250 nM DNA-PKi, 72 hours
Experimental: FIG. 4. PARP inhibitor-induced chromosomal derangement and genomic instability is dependent on DNA-PK activity. (A) Representative images of metaphase spreads from cells treated with diluent (0.2% DMSO), 500 nM DNA-PKi, 2.5 μM ABT-888, or both ABT-888 and DNA-PKi for 72 hours. Chromosomal breaks are marked with arrowheads and radial structures are marked with asterisks. (B) Quantitation of data from (A) showing average radial chromosomes per cell (n=100 for each data point pooled from two separate experiments, error bars represent SEM). † indicate values that are zero. (C) Calculated mutagenesis frequency in BRCA2-mutant CAPAN1 cells after control treatment or exposure to ABT-888 with or without 250 nM DNA-PKi. Each bar represents the mean±SEM of 5-8 plates.
HPRT mutagenesis was performed as described elsewhere (Hashimoto et al., Clin. Cancer Res., 1:369-376 (1995)). […] Each sample group was trypsinized, replated at 10^6 cells/100-mm dish in medium E supplemented with 15 μM 6-TG, cultured until colonies were visible (14-21 days), and analyzed manually for colony formation. […] Mutagenesis frequencies were calculated by dividing the number of colonies on 6-TG-treated plates by the total number of possible colonies (10^6 cells×plating efficiency).

| SMILES | poly(ADP-ribosyl)ation [1] | end-joining of I-SceI-linearized substrate ([2]; PEO1 cells compared to PEO4 cells) | end-joining of HindIII-linearized substrate ([2]; PEO1 cells) | end-joining of HindIII-linearized substrate [3] | effect of co-administration on PARP inhibitor-induced HPRT mutation frequency [4] |
| --- | --- | --- | --- | --- | --- |
| C[C@]1(c2nc3c(C(N)=O)cccc3[nH]2)CCCN1 [ABT-888] | decreased | significantly increased; also recorded: pronounced increase in end-joining | little effect; also recorded: small increase in end-joining | little effect; also recorded: small increase in end-joining |  |
| CCN1CCN(CC(=O)Nc2ccc(-c3cccc4c(=O)cc(N5CCOCC5)oc34)c3sc4ccccc4c23)CC1 [AZ 12594248] |  |  |  |  | markedly reduced the mutation frequency |
